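The concentration for 50% growth inhibition is given as GI50. TGI is the concentration that stops growth completely.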
How the values were obtained:
Assay in all cases: DTP human tumour cell line panel, 384-well format
[1] = test system: SK-MEL-28 melanoma
[2] = test system: HS 578T breast
[3] = test system: MDA-MB-435 melanoma
[4] = test system: UACC-257 melanoma
[5] = test system: NCI-H460 NSCLC
[6] = test system: NCI-H226 lung
[7] = test system: M14 melanoma
[8] = test system: IGROV1 ovarian
[9] = test system: CCRF-CEM leukemia
[10] = test system: MOLT-4 leukemia
[11] = test system: MALME-3M melanoma
[12] = test system: SF-295 CNS
[13] = test system: RXF 393 renal
[14] = test system: LOX IMVI melanoma
[15] = test system: SK-MEL-2 melanoma
[16] = test system: UACC-62 melanoma
[17] = test system: ACHN renal
[18] = test system: BT-549 breast
[19] = test system: MDA-MB-468 breast
[20] = test system: A498 renal
[21] = test system: CAKI-1 renal
[22] = test system: SN12C renal
[23] = test system: NCI-H322M lung
[24] = test system: HOP-92 NSCLC
[25] = test system: NCI/ADR-RES ovarian
[26] = test system: NCI-H522 lung
[27] = test system: SF-539 CNS
[28] = test system: RPMI-8226 leukemia
[29] = test system: 786-0 renal
[30] = test system: SF-268 CNS
[31] = test system: EKVX NSCLC
[32] = test system: HOP-62 NSCLC
[33] = test system: A549 NSCLC
[34] = test system: SK-OV-3 ovarian
[35] = test system: KM12 colon
[36] = test system: SW-620 colon
[37] = test system: HCT-15 colon
[38] = test system: U251 glioblastoma
[39] = test system: HCC-2998 colon
[40] = test system: HT29 colon
[41] = test system: OVCAR-4 ovarian
[42] = test system: TK-10 renal
[43] = test system: MCF7 breast
[44] = test system: COLO 205 colon
[45] = test system: SNB-75 CNS
[46] = test system: OVCAR-8 ovarian
[47] = test system: K-562 leukemia
[48] = test system: SK-MEL-5 melanoma
[49] = test system: PC-3 prostate
[50] = test system: NCI-H23 lung
[51] = test system: HCT-116 colon
[52] = test system: OVCAR-3 ovarian
[53] = test system: HL-60(TB) leukemia
[54] = test system: SNB-19 CNS
[55] = test system: DU-145 prostate
[56] = test system: OVCAR-5 ovarian
[57] = test system: SR leukemia
[58] = test system: T-47D breast
[59] = test system: MDA-MB-231 breast

## N#Cc1ccc(OC(=O)Nc2cc(Cl)cc(Cl)c2)cc1
[1]
  GI50: 13.1 µM
  TGI: 30.6 µM
[2]
  GI50: 7.57 µM
  TGI: 20.5 µM
[3]
  GI50: 8.94 µM
  TGI: 23.6 µM
[4]
  GI50: 6.12 µM
  TGI: 15.9 µM
[5]
  GI50: 2.84 µM
  TGI: 6.62 µM
[6]
  GI50: 3.27 µM
  TGI: 8.97 µM
[7]
  GI50: 5.38 µM
  TGI: 15 µM
[8]
  GI50: 4.43 µM
  TGI: 15.3 µM
[9]
  GI50: 2.19 µM
  TGI: 5.31 µM
[10]
  GI50: 2 µM
  TGI: 3.7 µM
[11]
  GI50: 5.9 µM
  TGI: 16.4 µM
[12]
  GI50: 3.07 µM
  TGI: 8.78 µM
[13]
  GI50: 6.26 µM
  TGI: 17.7 µM
[14]
  GI50: 3.81 µM
  TGI: 12.7 µM
[15]
  GI50: 2.84 µM
  TGI: 5.82 µM
[16]
  GI50: 7.22 µM
  TGI: 19.3 µM
[17]
  GI50: 3.51 µM
  TGI: 10 µM
[18]
  GI50: 13.4 µM
  TGI: 30.8 µM
[19]
  GI50: 9.04 µM
  TGI: 20.9 µM
[20]
  GI50: 3.47 µM
  TGI: 9.21 µM
[21]
  GI50: 3.69 µM
  TGI: 10.2 µM
[22]
  GI50: 4 µM
  TGI: 13.2 µM
[23]
  GI50: 11.6 µM
  TGI: 29.4 µM
[24]
  GI50: 3.23 µM
  TGI: 7.12 µM
[25]
  GI50: 3.79 µM
  TGI: 9.65 µM
[26]
  GI50: 3.23 µM
  TGI: 7.63 µM
[27]
  GI50: 4.28 µM
  TGI: 13.4 µM
[28]
  GI50: 2.04 µM
  TGI: 3.48 µM
[29]
  GI50: 7.03 µM
  TGI: 20.1 µM
[30]
  GI50: 5.61 µM
  TGI: 21.6 µM
[31]
  GI50: 3.92 µM
  TGI: 12.6 µM
[32]
  GI50: 3.03 µM
  TGI: 6.05 µM
[33]
  GI50: 3.78 µM
  TGI: 12.7 µM
[34]
  GI50: 6 µM
  TGI: 19.9 µM
[35]
  GI50: 3.74 µM
  TGI: 11 µM
[36]
  GI50: 4.54 µM
  TGI: 14.6 µM
[37]
  GI50: 4.14 µM
  TGI: 12.1 µM
[38]
  GI50: 3.43 µM
  TGI: 7.96 µM
[39]
  GI50: 13.2 µM
  TGI: 30.8 µM
[40]
  GI50: 4.43 µM
  TGI: 17.3 µM
[41]
  GI50: 8.27 µM
  TGI: 62.2 µM
[42]
  GI50: 4.01 µM
  TGI: 13.1 µM
[43]
  GI50: 3.75 µM
  TGI: 16 µM
[44]
  GI50: 6.65 µM
  TGI: 23.9 µM
[45]
  GI50: 3.32 µM
  TGI: 9.94 µM
[46]
  GI50: 4.1 µM
  TGI: 12.6 µM
[47]
  GI50: 7.71 µM
  TGI: 93.1 µM
[48]
  GI50: 4.36 µM
  TGI: 13.2 µM
[49]
  GI50: 3.27 µM
  TGI: 7.27 µM
[50]
  GI50: 2.23 µM
  TGI: 4.16 µM
[51]
  GI50: 3.12 µM
  TGI: 7.62 µM
[52]
  GI50: 2.44 µM
  TGI: 5.16 µM
[53]
  GI50: 1.77 µM
  TGI: 3.16 µM
[54]
  GI50: 4.74 µM
  TGI: 19.1 µM
[55]
  GI50: 4.29 µM
  TGI: 55.5 µM

## OCc1ccc(-c2nn(Cc3ccccc3)c3ccccc23)o1
[1]
  GI50: 24 µM
  TGI: 41.4 µM
[2]
  GI50: 20.3 µM
  TGI: 42.8 µM
[3]
  GI50: 20.8 µM
  TGI: 38 µM
[4]
  GI50: 1.49 µM
  TGI: 3.15 µM
[5]
  GI50: 16.4 µM
  TGI: 30.3 µM
[6]
  GI50: 0.166 µM
  TGI: 0.314 µM
[7]
  GI50: 21.7 µM
  TGI: 39.7 µM
[8]
  GI50: 0.424 µM
  TGI: 2.31 µM
[9]
  GI50: 18 µM
  TGI: 32.3 µM
[10]
  GI50: 12.1 µM
  TGI: 24.7 µM
[56]
  GI50: 0.369 µM
  TGI: 5.99 µM
[11]
  GI50: 20.4 µM
  TGI: 36.4 µM
[12]
  GI50: 46.6 µM
  TGI: > 100 µM
[13]
  GI50: 11.4 µM
  TGI: 27.5 µM
[57]
  GI50: 3.02 µM
  TGI: 7.56 µM
[15]
  GI50: 36.5 µM
  TGI: 54.5 µM
[16]
  GI50: 1.97 µM
  TGI: 31.4 µM
[17]
  GI50: 35 µM
  TGI: 81.9 µM
[18]
  GI50: 17.4 µM
  TGI: 31.5 µM
[19]
  GI50: 0.181 µM
  TGI: 0.328 µM
[20]
  GI50: 0.024 µM
  TGI: 0.0655 µM
[21]
  GI50: 0.427 µM
  TGI: 3.49 µM
[58]
  GI50: 9.48 µM
  TGI: 34.1 µM
[22]
  GI50: 50.1 µM
  TGI: > 100 µM
[23]
  GI50: 33 µM
  TGI: > 100 µM
[24]
  GI50: 16 µM
  TGI: 30.8 µM
[25]
  GI50: 21 µM
  TGI: 42.7 µM
[26]
  GI50: 14.6 µM
  TGI: 28.2 µM
[27]
  GI50: 18.5 µM
  TGI: 34.6 µM
[28]
  GI50: 9.64 µM
  TGI: 21.3 µM
[29]
  GI50: 34.5 µM
  TGI: > 100 µM
[30]
  GI50: 29.8 µM
  TGI: 69.7 µM
[31]
  GI50: 27.3 µM
  TGI: 68.1 µM
[32]
  GI50: 5.79 µM
  TGI: 26.3 µM
[33]
  GI50: 19.8 µM
  TGI: 44.9 µM
[34]
  GI50: 22.5 µM
  TGI: 41.4 µM
[35]
  GI50: 18.6 µM
  TGI: 34 µM
[36]
  GI50: 20.2 µM
  TGI: 41.5 µM
[37]
  GI50: 23 µM
  TGI: 49.6 µM
[38]
  GI50: 13.3 µM
  TGI: 28.1 µM
[39]
  GI50: 20.1 µM
  TGI: 34.9 µM
[40]
  GI50: 17.9 µM
  TGI: 32.3 µM
[41]
  GI50: 23.5 µM
  TGI: 49 µM
[42]
  GI50: 0.374 µM
  TGI: 2.29 µM
[43]
  GI50: 2.34 µM
  TGI: > 100 µM
[44]
  GI50: 18.6 µM
  TGI: 36.5 µM
[45]
  GI50: 17.2 µM
  TGI: 35.1 µM
[46]
  GI50: 23.5 µM
  TGI: 47 µM
[48]
  GI50: 18.3 µM
  TGI: 32.5 µM
[49]
  GI50: 19.7 µM
  TGI: 37.3 µM
[50]
  GI50: 25.3 µM
  TGI: 53.1 µM
[52]
  GI50: 9.85 µM
  TGI: 21.9 µM
[59]
  GI50: 20.3 µM
  TGI: 45.8 µM
[53]
  GI50: 16.6 µM
  TGI: 30.4 µM
[54]
  GI50: 46.2 µM
  TGI: > 100 µM
[55]
  GI50: 17.4 µM
  TGI: 32.8 µM

Source: PubChem BioAssay (NCI)
